This test addresses T1, human PAR4 (Homo sapiens, UniProt Q96RI0).
T1 construct: expressed in transfected cells; host or cells: HEK293 PAR4 Clone 1.2A (BMS Arctic ID 383940)
T1 sequence (Q96RI0 18-385): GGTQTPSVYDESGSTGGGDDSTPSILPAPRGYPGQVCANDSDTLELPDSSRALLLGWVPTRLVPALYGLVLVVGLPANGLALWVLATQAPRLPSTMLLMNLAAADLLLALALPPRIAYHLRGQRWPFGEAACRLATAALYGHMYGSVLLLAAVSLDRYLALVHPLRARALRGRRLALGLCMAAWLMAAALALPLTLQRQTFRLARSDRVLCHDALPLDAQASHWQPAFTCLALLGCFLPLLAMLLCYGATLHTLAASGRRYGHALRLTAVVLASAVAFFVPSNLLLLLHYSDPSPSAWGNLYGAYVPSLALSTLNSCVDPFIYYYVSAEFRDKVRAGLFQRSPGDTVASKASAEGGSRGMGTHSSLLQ
Kind of test: PAR4 FLIPR assay: antagonism of agonist-peptide-induced calcium mobilization in PAR4-expressing HEK293 cells. The test is classed as cell-based. The note with it: H-Ala-Phe(4-F)-[…]NH2-induced intracellular calcium mobilization, 11-point curves.

Molecules are shown by their SMILES.

For `COc1cnc2c(-c3nc4c(C)cc(OCCNS(=O)(=O)c5ccc(C)cc5)cc4s3)cc(C)cc2n1` [Example 87, N-(2-(2-(2-methoxy-7-methylquinoxalin-5-yl)-4-methylbenzo[d]thiazol-6-yloxy)ethyl)-4-methylbenzenesulfonamide], the half-maximal inhibitory concentration (IC50) turned out to be 2 nM.
In the case of `COc1ccc2oc(-c3cc(C)cc4nc(OC)cnc34)cc2c1` [Example 56, 2-methoxy-5-(5-methoxybenzofuran-2-yl)-7-methylquinoxaline], the IC50 was 4.7 nM.
For the molecule `COc1cnc2c(-c3nc4cc(F)c(O[C@@H](C)[C@@H](C)OC(=O)Nc5ccc(CCO)nc5)nc4s3)cc(Cl)cc2c1` [Example 781, (2R,3S)-3-((2-(6-chloro-3-methoxyquinolin-8-yl)-6-fluorothiazolo[5,4-b]pyridin-5-yl)oxy) butan-2-yl (6-(2-hydroxyethyl)pyridin-3-yl)carbamate], the IC50 was determined as 6 nM.
Turning to `Cc1cc(-c2nc3c(s2)CCC3)c2ncc(OC(F)F)nc2c1` [Example 136, 2-(2-(difluoromethoxy)-7-methylquinoxalin-5-yl)-5,6-dihydro-4H-cyclopenta[d]thiazole], the IC50 was 29 nM.
In the case of `COc1cnc2c(-c3nc4cc(F)c(OC[C@@H](C)OC(=O)Nc5ccc(C(=O)N6CC[C@H](O)C6)nc5)cc4s3)cc(C)cc2n1` [Example 478, (R)-1-((5-fluoro-2-(2-methoxy-7-methylquinoxalin-5-yl)benzo[d]thiazol-6-yl)oxy)propan-2-yl (6-((S)-3-hydroxypyrrolidine-1-carbonyl)pyridin-3-yl)carbamate] it was 9.1 nM.
Consider `COc1cc(CO)c2nc(-c3cc(C)cc4nc(OC)cnc34)sc2c1` [Example 154, (6-methoxy-2-(2-methoxy-7-methylquinoxalin-5-yl)benzo[d]thiazol-4-yl)methanol], for which the IC50 came out at 3.8 nM.
Take `COc1cnc2c(-c3nc4cc(F)c(OC[C@@H](C)OC(=O)Nc5cnc(O[C@H](C)CO)nc5)nc4s3)cc(C)cc2n1` [Example 692, (R)-1-((6-fluoro-2-(2-methoxy-7-methylquinoxalin-5-yl)thiazolo[5,4-b]pyridin-5-yl)oxy) propan-2-yl (2-(((R)-1-hydroxypropan-2-yl)oxy)pyrimidin-5-yl)carbamate]: the IC50 amounted to 1.8 nM.
The value for `COc1cnc2c(-c3nc4c(s3)C(O)CCC4)cc(C)cc2n1` (stereo not shown) [Example 138, 2-(2-methoxy-7-methylquinoxalin-5-yl)-4,5,6,7-tetrahydrobenzo[d]thiazol-7-ol] was 33 nM; that for `COCc1cnc2c(-c3nc4c(Cl)c(F)c(O)cc4s3)cc(C)cc2n1` [Example 291, 4-chloro-5-fluoro-2-(2-(methoxymethyl)-7-methylquinoxalin-5-yl) benzo[d]thiazol-6-ol] was 11 nM.
For `CCOc1cnc2c(-c3nc4cc(F)c(O[C@@H](C)[C@@H](C)OC(=O)Nc5cnc(CO)nc5)nc4s3)cc(C)cc2n1` [Example 816], the IC50 worked out at 10 nM.
`COCc1cnc2c(-c3nc4ccc(C(=O)OC)cc4s3)cc(C)cc2n1` [Example 264]: the IC50 came to 8.3 nM.
In the case of `COc1cnc2c(-c3nc4c(C)c(F)c(OC)cc4s3)cc(C(C)O)cc2n1` (stereo not shown) [Example 244, 1-(8-(5-fluoro-6-methoxy-4-methylbenzo[d]thiazol-2-yl)-3-methoxyquinoxalin-6-yl) ethanol] it was 2 nM; in that of `COCc1cnc2c(-c3nc4c(C)cc(OC)cc4s3)cc(C#N)cc2n1` [Example 233, 8-(6-methoxy-4-methylbenzo[d]thiazol-2-yl)-3-(methoxymethyl)quinoxaline-6-carbonitrile], 0.4 nM; in that of `COc1cnc2c(-c3nc4cc(F)c(O[C@@H](C)[C@@H](C)OC(=O)Nc5cnc(OCCC(C)(C)O)nc5)nc4s3)cc(C)cc2n1` [Example 730, (2R,3S)-3-((6-fluoro-2-(2-methoxy-7-methylquinoxalin-5-yl)thiazolo[5,4-b]pyridin-5-yl)oxy)butan-2-yl (2-(3-hydroxy-3-methylbutoxy)pyrimidin-5-yl)carbamate], 13 nM.
`COc1cnc2c(-c3cc4c(OCc5ccccc5)cccc4o3)cc(C)cc2n1` [Example 43, 5-(4-(benzyloxy)benzofuran-2-yl)-2-methoxy-7-methylquinoxaline]: the IC50 amounted to 170 nM.
On to `COCc1cnc2c(-c3nc4c(OCc5ccccc5)cc(OC)cc4s3)cc(C)cc2n1` [Example 635, 4-(benzyloxy)-6-methoxy-2-(2-(methoxymethyl)-7-methylquinoxalin-5-yl)benzo[d]thiazole], for which the IC50 came out at 10 nM.
The value for `C#Cc1cc(-c2nc3c(C)cc(OCCNS(=O)(=O)c4ccc(F)cc4)cc3s2)c2ncc(OC)nc2c1` [Example 230, N-(2-((2-(7-ethynyl-2-methoxyquinoxalin-5-yl)-4-methylbenzo[d]thiazol-6-yl)oxy)ethyl)-4-fluorobenzenesulfonamide] was 2.2 nM; that for `COc1cnc2c(-c3nc4cc(F)c(O[C@@H](C)[C@@H](C)OC(=O)Nc5ccc(OCC(F)(F)CO)nc5)nc4s3)cc(C)cc2n1` [Example 726, (2R,3S)-3-((6-fluoro-2-(2-methoxy-7-methylquinoxalin-5-yl)thiazolo[5,4-b]pyridin-5-yl)oxy)butan-2-yl (6-(2,2-difluoro-3-hydroxypropoxy)pyridin-3-yl)carbamate] was 1.2 nM.
On to `COc1ccc2c(-c3cc4ccccc4o3)nc(C)cc2n1` [Example 130, 5-(benzofuran-2-yl)-2-methoxy-7-methyl-1,6-naphthyridine], for which the 50% inhibitory concentration (IC50) amounted to 460 nM.
As to `COc1cnc2c(-c3nc4cc(F)c(OC[C@@H](C)OC(=O)Nc5cnc(O[C@H](C)CO)nc5)cc4s3)cc(C)cc2n1` [Example 553, (R)-1-((5-fluoro-2-(2-methoxy-7-methylquinoxalin-5-yl)benzo[d]thiazol-6-yl)oxy)propan-2-yl (2-(((R)-1-hydroxypropan-2-yl)oxy)pyrimidin-5-yl)carbamate], the IC50 stood at 1.2 nM.
In the case of `COc1cc(C)c2nc(-c3cc(Cl)cc4nc(OC)cnc34)sc2c1` [Example 837, 2-(7-chloro-2-methoxyquinoxalin-5-yl)-6-methoxy-4-methylbenzo[d]thiazole] it was 17 nM.
In the case of `CCOc1cnc2c(-c3nc4c(C)cc(OCCNS(=O)(=O)c5ccc(F)cc5)cc4s3)cc(C)cc2n1` [Example 30, N-(2-((2-(2-ethoxy-7-methylquinoxalin-5-yl)-4-methylbenzo[d]thiazol-6-yl)oxy)ethyl)-4-fluorobenzenesulfonamide] it was 4.7 nM; in that of `COc1cnc2c(-c3nc4cc(F)c(O[C@@H](C)[C@@H](C)OC(=O)Nc5ccc(N6CCCC6)nc5)cc4s3)cc(C)cc2n1` [Example 605, (2R,3S)-3-((5-fluoro-2-(2-methoxy-7-methylquinoxalin-5-yl)benzo[d]thiazol-6-yl)oxy)butan-2-yl (6-(pyrrolidin-1-yl)pyridin-3-yl)carbamate], 0.7 nM.
The value for `COc1cnc2c(-c3nc4c(C)cc(OC[C@@H](C)OC(=O)Nc5cnc(OC)nc5)nc4s3)cc(C)cc2n1` [Example 738, (R)-1-((2-(2-methoxy-7-methylquinoxalin-5-yl)-7-methylthiazolo[5,4-b]pyridin-5-yl)oxy) propan-2-yl (2-methoxypyrimidin-5-yl)carbamate] was 10 nM.
On to `COc1cnc2c(-c3nc4cc(F)c(OC[C@@H](C)OC(=O)Nc5cnc(OC[C@H](C)O)nc5)nc4s3)cc(C)cc2n1` [Example 701, (R)-1-((6-fluoro-2-(2-methoxy-7-methylquinoxalin-5-yl)thiazolo[5,4-b]pyridin-5-yl)oxy) propan-2-yl (2-((S)-2-hydroxypropoxy)pyrimidin-5-yl)carbamate], for which the IC50 was found to be 2.7 nM.
On to `COc1cnc2c(-c3nc4cc(F)c(OC[C@@H](C)OC(=O)Nc5cnc(CO)nc5)cc4s3)cc(C)cc2n1` [Example 496, (R)-1-((5-fluoro-2-(2-methoxy-7-methylquinoxalin-5-yl)benzo[d]thiazol-6-yl)oxy)propan-2-yl (2-(hydroxymethyl)pyrimidin-5-yl)carbamate], for which the IC50 came to 1.9 nM.
On to `COc1cnc2c(-c3nc4cc(F)c(O[C@@H](C)[C@@H](C)OC(=O)Nc5ccc(C(C)(C)O)nc5)cc4s3)cc(C)cc2n1` [Example 500, (2R,3S)-3-((5-fluoro-2-(2-methoxy-7-methylquinoxalin-5-yl)benzo[d]thiazol-6-yl)oxy)butan-2-yl (6-(2-hydroxypropan-2-yl)pyridin-3-yl)carbamate], for which the IC50 stood at 3.8 nM.
Regarding `COc1cnc2c(-c3nc4cc(F)c(OC[C@@H](C)OC(=O)Nc5ccc(C(=O)NCC6(CO)CCC6)nc5)cc4s3)cc(C)cc2n1` [Example 473, (R)-1-((5-fluoro-2-(2-methoxy-7-methylquinoxalin-5-yl)benzo[d]thiazol-6-yl)oxy)propan-2-yl (6-(((1-(hydroxymethyl)cyclobutyl)methyl)carbamoyl)pyridin-3-yl)carbamate], the IC50 amounted to 3.4 nM.
The value for `COCc1cnc2c(-c3nc4c(Cl)cc(Cl)cc4s3)cc(C)cc2n1` [Example 275, 4,6-dichloro-2-(2-(methoxymethyl)-7-methylquinoxalin-5-yl)benzo[d]thiazole] was 0.9 nM; that for `COc1cnc2c(-c3nc4cc(F)c(O[C@@H](C)[C@@H](C)OC(=O)Nc5cncnc5)nc4s3)cc(C)cc2n1` [Example 716, (2R,3S)-3-((6-fluoro-2-(2-methoxy-7-methylquinoxalin-5-yl)thiazolo[5,4-b]pyridin-5-yl)oxy)butan-2-yl pyrimidin-5-ylcarbamate] was 2 nM; that for `CCOc1cc(C)c2nc(-c3cc(C)cc4nc(COC)cnc34)sc2c1` [Example 306] was 1 nM.

For orientation: IC50 means the point on the concentration scale where inhibition reaches its midpoint.

The values above are taken from US12060347B2 (BRISTOL-MYERS SQUIBB COMPANY, priority 2016, dated 2024).
